In test [1] the test system is PR, AR, ER, GR and MR. In words: cis-trans or co-transfection assay, steroid receptor panel (cross-reactivity). Format: cell-based, human. To be noted: as seen in the Tables.
Test [2] addresses T1, human PR-B (Homo sapiens, UniProt P06401).
T1 construct: expressed in transfected cells; host or cells: CV-1 cells (African green monkey kidney fibroblasts), transient transfection
T1 sequence (P06401 1-933): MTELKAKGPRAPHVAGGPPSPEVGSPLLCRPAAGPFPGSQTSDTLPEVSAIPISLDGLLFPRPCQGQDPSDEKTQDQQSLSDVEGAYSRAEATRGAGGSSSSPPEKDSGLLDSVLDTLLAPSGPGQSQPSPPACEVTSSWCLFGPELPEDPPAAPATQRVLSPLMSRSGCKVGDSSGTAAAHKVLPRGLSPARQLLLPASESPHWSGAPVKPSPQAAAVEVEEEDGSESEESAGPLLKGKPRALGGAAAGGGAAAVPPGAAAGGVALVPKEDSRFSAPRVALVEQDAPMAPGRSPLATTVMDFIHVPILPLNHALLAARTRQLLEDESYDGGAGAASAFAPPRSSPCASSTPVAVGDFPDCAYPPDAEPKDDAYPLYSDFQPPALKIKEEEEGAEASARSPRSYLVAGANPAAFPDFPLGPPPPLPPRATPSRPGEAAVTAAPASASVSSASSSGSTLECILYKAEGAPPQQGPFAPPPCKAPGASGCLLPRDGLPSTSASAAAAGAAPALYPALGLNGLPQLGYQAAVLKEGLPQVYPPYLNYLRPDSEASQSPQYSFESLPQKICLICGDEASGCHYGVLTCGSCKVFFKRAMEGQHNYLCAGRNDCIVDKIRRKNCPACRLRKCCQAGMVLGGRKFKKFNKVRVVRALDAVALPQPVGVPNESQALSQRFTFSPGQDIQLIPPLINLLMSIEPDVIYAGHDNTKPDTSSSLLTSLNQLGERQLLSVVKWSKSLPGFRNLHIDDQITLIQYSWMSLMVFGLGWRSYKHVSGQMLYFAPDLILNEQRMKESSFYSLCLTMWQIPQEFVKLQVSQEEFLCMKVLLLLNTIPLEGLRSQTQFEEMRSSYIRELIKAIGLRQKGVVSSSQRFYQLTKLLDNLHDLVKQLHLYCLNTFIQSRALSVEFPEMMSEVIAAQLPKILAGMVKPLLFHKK
The test can be described thus: Co-transfection assay, PR agonist and antagonist activity, CV-1 cells.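 Note: luciferase reporter driven by a hormone response element, co-transfected with human PR-B into CV-1 monkey kidney cells, agonists raise and antagonists lower the reporter signal.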 Format: cell-based.

The target of test [3] is T2, human progesterone receptor A form (PR-A) (Homo sapiens, UniProt P06401).
T2 sequence (P06401 1-769 isoform P06401-2): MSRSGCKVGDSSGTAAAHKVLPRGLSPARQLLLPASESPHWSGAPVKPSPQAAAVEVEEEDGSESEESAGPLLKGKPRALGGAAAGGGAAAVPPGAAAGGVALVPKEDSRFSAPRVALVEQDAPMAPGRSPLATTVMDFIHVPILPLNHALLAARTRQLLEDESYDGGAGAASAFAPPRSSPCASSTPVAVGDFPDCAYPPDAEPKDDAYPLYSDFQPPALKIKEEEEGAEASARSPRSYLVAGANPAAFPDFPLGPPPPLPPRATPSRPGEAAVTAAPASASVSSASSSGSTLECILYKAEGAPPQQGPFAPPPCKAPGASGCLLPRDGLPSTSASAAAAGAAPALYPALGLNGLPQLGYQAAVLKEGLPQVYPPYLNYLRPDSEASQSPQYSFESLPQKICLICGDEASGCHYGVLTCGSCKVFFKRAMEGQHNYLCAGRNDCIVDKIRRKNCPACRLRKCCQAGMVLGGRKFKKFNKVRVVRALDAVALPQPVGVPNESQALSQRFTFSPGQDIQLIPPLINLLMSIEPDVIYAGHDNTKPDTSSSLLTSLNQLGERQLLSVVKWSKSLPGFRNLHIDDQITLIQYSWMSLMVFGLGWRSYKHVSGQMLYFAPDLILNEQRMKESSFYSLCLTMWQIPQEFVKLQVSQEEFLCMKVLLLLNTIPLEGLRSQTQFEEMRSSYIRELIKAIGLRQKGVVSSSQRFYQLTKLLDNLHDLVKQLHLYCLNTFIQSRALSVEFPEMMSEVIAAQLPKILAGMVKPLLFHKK
In words: PR binding assay, baculovirus extract, [3H] progesterone. The note with it: read-out: PR Binding Ki.

The subject of test [4] is pregnancy (implantation sites) in female mice (ICR strain). In words: Implantation assay (antiprogestin activity). Format: in vivo, mouse. The note with it: R5020 1.0 mg per day. As to the method: Mating was assumed to have taken place at 02.00 h, time 0.
Compound 150 was dissolved in sesame oil (50 mg/mL) and kept at room temperature before use. […] Control animals received an equivuivalent volume of the control vehicle, sesame oil, alone.
The animals were sacrificed, and autopsies were carried out at Day 8 of pregnancy, and numbers of implantation sites counted and recorded, and are shown in Table 7 below. Each group consisted of between 5 and 7 animals.

What is called Ki is the dissociation constant of the complex between target and ligand, obtained from inhibition or displacement. Consider `CC1=CC(C)(C)Nc2ccc(-c3cccc(C#N)c3)cc21` [Compound 150, 6-(3-Cyanophenyl)-1,2-dihydro-2,2,4-trimethylquinoline], for which, in test [1], the “steroid receptor selectivity profile” value is given as “highly selective PR antagonists”. Besides, the EC50 in test [2] (agonist mode, EC50, read-out: PR Agonist CV-1 Cells Potency) is 3200 nM. The IC50 in test [2] (read-out: PR Antagonist CV-1 Cells Potency) was determined as 24 nM. In test [3], the Ki was found to be 17 nM. In test [4], the “effect on pregnancy rate with simultaneous injection of PR agonist R5020” value is recorded as “reversed to the control level”.
